Consider two compounds from USRE48077E1, “Methods of treating ototoxicity” (Anida Pharma Inc., priority 2013, dated 2020).

Read-outs that look alike come from different tables or passages of the source.

Holding throughout (assay type): cell-based, mouse
Data set [1] deals with NOX3. Briefly: Immunofluorescence staining of stress and inflammatory markers: NOX3. The method, then:
(§1) The cultures were kept at 33° C. in an incubator with 10% CO2. Detection of stress and inflammatory markers in UB/OC-1 cells was performed by immunofluorescence staining. UB/OC-1 cells were first plated in a 12 well plate. […] After the treatment, the cells were fixed with 4% paraformaldehyde (Sigma, St. Louis, Mo.), followed by washing once with phosphate buffered saline (PBS). Coverslips were then incubated with solution A—5% donkey serum (Jackson Immuno Laboratories, West Grove, Pa.) and 0.5% Triton-X (Sigma, St. Louis, Mo.) in PBS for 30 min at room temperature. Double immunostaining for different markers NOX3, iNOS, TRPV1 or TNF-α (1:300 dilution) in solution A was performed overnight at 4° C. Secondary antibody mix was then added and incubated for 1 h at 37° C. After 3 washes with PBS and two washes with fresh distilled water the coverslips were mounted on glass slides using Vectashield mounting medium containing DAPI (Vector Laboratories, Inc. Burlingame, Calif.) for nuclear staining, before imaging under an LEICA confocal microscope (Buffalo Grove, Ill.).

Data set [2] relates to TRPV-1. In words: Immunofluorescence staining of stress and inflammatory markers: TRPV-1. The protocol: as §1
Data set [3] deals with TNFα. In words: Immunofluorescence staining of stress and inflammatory markers: TNFα. The protocol:
as §1

Data set [4] concerns iNOS. Briefly: Immunofluorescence staining of stress and inflammatory markers: iNOS. The method, then:
as §1

Data set [5] concerns UB/OC-1 cells. In words: Cell survival by FITC-AnnexinV/propidium iodide apoptosis detection, flow cytometry. The following applies: for viability at 0.001 µM / viability at 0.01 µM / viability at 0.1 µM: Mus musculus. The protocol: (§2) The cultures were kept at 33° C. in an incubator with 10% CO2. Cell survival after NPD1 treatment was also analyzed in UB/OC-1 cells in the presence or absence of damage. Specifically, cell death via apoptosis was determined by using FITC-AnnexinV Apoptosis detection kit (BD Pharmingen, San Diego, Calif., USA) and quantified by flow cytometry. In brief, 3,500 UB/OC-1 cells per well were seeded into a 96-well plate. […] At the end of the treatment time, UB/OC-1 cells were washed once with phosphate buffered saline (PBS) and harvested in a 0.5% trypsin/EDTA solution at 37° C., centrifuged at 220×g for 5 min and then immediately resuspended in the physiological buffer provided in the kit. […] The results were quantified using the CellQuest software (BD Biosciences, San Jose, Calif.). Data are expressed as percent viable (non-apoptotic cells) with the number of cells seeded into each well used as 100%. Three independent experiments were performed.

Assay in data set [6]: as above
The note with it: mouse, no cisplatin; for viability at 1 nM: NPD1 1 nM alone; for viability at 10 nM: NPD1 10 nM alone; for viability at 100 nM: NPD1 100 nM alone. The method, then: as §2

Data set [7] relates to reactive oxygen species (ROS) in UB/OC-1 cells. In words: ROS generation by CellROX green staining, confocal imaging. The protocol:
The cultures were kept at 33° C. in an incubator with 10% CO2. UB/OC1 cells were cultured on glass coverslips in 12-well culture plates. […] The cells were then washed once with phosphate buffered saline (PBS), and fixed in 4% paraformaldehyde for 15 minutes. The coverslips were then mounted with DAPI containing Vectashield (Vector Labs, Burlingame, Calif.).

Data set [8] concerns UB/OC-1 cells. In words: Cell viability by MTS assay (CellTiter 96 AQueous One Solution Cell Proliferation Assay), with and without cisplatin-induced damage. The following applies: 24 hours. The method, then:
In the examples described herein, UB/OC-1 cells, or immortalized organ of Corti cells derived from the mouse, were utilized to examine the activity of NPD1 in the context of ototoxic damage. […] The cultures were kept at 33° C. in an incubator with 10% CO2. […] In brief, 3,500 cells per well were seeded into a 96-well plate. […] NPD1 treatment of 1-100 nM concentrations was tested in 3 independent experiments. A cell proliferation assay was performed by using Cell-Titer 96® AQueous One Solution Cell Proliferation Assay Kit (Promega, Madison, Wis.), according to the manufacturer's instructions. After 24 hours, 20 μl of CellTiter 96 AQueous One Solution reagent was added to each well in 100 μl of total volume of media. Cells were incubated for 3 to 4 hours, and absorbance was recorded at 490 nm using an ELISA plate reader. The absorbance is directly proportional to the number of living cells and is expressed as a percent relative to vehicle-treated cells.
Background: Formazan colour is commonly taken as a measure of viable cells.

[9] abbreviates: NPD1 at 1 nM, 10 nM and 100 nM 30 minutes, then cisplatin 2.5 μM 24 hours.
The mark [10] stands for this setting: NPD1 (1, 10, 100 nM; particularly at 10 nM) 30 minutes, then cisplatin 2.5 μM 24 hours.
Setting [11] is: average of three experiments, read-out: Cell Viability Avg.
Where [12] appears, read: read-out: Set II Cell Viability.
Where [13] appears, read: read-out: Set III Cell Viability.
Where [14] appears, read: cisplatin only 2.5 μM, 24 hours.

The term viability denotes a read-out of living cells in per cent, often relative to untreated cells.

On to `CC/C=C\C[C@H](O)\C=C/C=C/C=C/[C@H](O)C/C=C\C/C=C\CCC(=O)[O-].[Na+]` [NPD1, Sodium (4Z,7Z,10R,11E,13E,15Z,17S,19Z)-10,17-dihydroxydocosa-4,7,11,13,15,19-hexaenoate], for which the “NOX3 expression (staining)” value in data set [1] (setting [9]) was “significant decrease”. The “TRPV-1 expression (staining)” value in data set [2] (setting [10]) is reported as “decrease”. Also, in data set [3] (setting [10]), the “TNFα expression (staining)” value is “decrease”. Moreover, the “iNOS expression (staining)” value in data set [4] (setting [9]) is given as “significant decrease”. Further, the viability at 0.001 µM in data set [5] (read-out: Cell Viability Avg., NPD1 1 nM, 30 minutes later cisplatin 20 μM for 24 h, average of three experiments) was determined as 87.6%; in data set [5] (read-out: Set I Cell Viability, NPD1 1 nM, 30 minutes later cisplatin 20 μM for 24 h) it was 85%; in data set [5] (read-out: Set II Cell Viability, NPD1 1 nM, 30 minutes later cisplatin 20 μM for 24 h), 83%; in data set [5] (read-out: Set III Cell Viability, NPD1 1 nM, 30 minutes later cisplatin 20 μM for 24 h), 94.9%. Further, the viability at 0.01 µM in data set [5] (read-out: Cell Viability Avg., NPD1 10 nM, 30 minutes later cisplatin 20 μM for 24 h, average of three experiments) turned out to be 88.8%; in data set [5] (read-out: Set I Cell Viability, NPD1 10 nM, 30 minutes later cisplatin 20 μM for 24 h), 84%; in data set [5] (read-out: Set II Cell Viability, NPD1 10 nM, 30 minutes later cisplatin 20 μM for 24 h) it was 86%; in data set [5] (read-out: Set III Cell Viability, NPD1 10 nM, 30 minutes later cisplatin 20 μM for 24 h) it was 96.5%. The viability at 0.1 µM in data set [5] (read-out: Cell Viability Avg., NPD1 100 nM, 30 minutes later cisplatin 20 μM for 24 h, average of three experiments) was 89.2%; in data set [5] (read-out: Set I Cell Viability, NPD1 100 nM, 30 minutes later cisplatin 20 μM for 24 h), 90%; in data set [5] (read-out: Set II Cell Viability, NPD1 100 nM, 30 minutes later cisplatin 20 μM for 24 h) it was 80%; in data set [5] (read-out: Set III Cell Viability, NPD1 100 nM, 30 minutes later cisplatin 20 μM for 24 h), 97.6%. The cell survival entry in data set [5] (NPD1 treatment in cisplatin-induced damaged cells) is given as “over 96%”. Further, the viability at 1 nM was 96.8% in data set [6] (setting [11]), 96% in data set [6] (read-out: Set I Cell Viability), 96% in data set [6] (setting [12]) and 98.5% in data set [6] (setting [13]). Moreover, the viability at 10 nM in data set [6] (setting [11]) stood at 96.9%; in data set [6] (read-out: Set I Cell Viability), 96%; in data set [6] (setting [12]), 97%; in data set [6] (setting [13]) it was 97.7%. The viability at 100 nM in data set [6] (setting [11]) worked out at 96.2%; in data set [6] (read-out: Set I Cell Viability), 91%; in data set [6] (setting [12]), 98%; in data set [6] (setting [13]) it was 99.5%. In addition, the ROS staining entry in data set [7] (NPD1 1 nM and 10 nM pre-treatment 30 minutes, then cisplatin 2.5 μM 30 minutes) is “decreased ROS staining”; in data set [7] (NPD1 alone, no cisplatin), “very little or no ROS staining”. Besides, the cell viability entry is “over 95%” in data set [8] (NPD1 1 nM-100 nM with cisplatin 20 μM, percent relative to vehicle-treated cells) and “over 80%” in data set [8] (NPD1 at all tested concentrations (1 pM-100 nM) with cisplatin 20 μM, percent relative to vehicle-treated cells).

With `N.N.[Cl][Pt][Cl]` [cisplatin, reference compound], the NOX3 staining entry in data set [1] (setting [14]) is listed as “increased staining”. Moreover, in data set [2] (setting [14]), the TRPV-1 staining result is “increased staining”. Moreover, the TNFα staining entry in data set [3] (setting [14]) is recorded as “increased staining”. Further, in data set [4] (setting [14]), the iNOS staining result is recorded as “increased staining”. In data set [7] (cisplatin 2.5 μM alone, 30 minutes), the ROS staining entry is “ROS staining in the cytoplasm of the cell”. Moreover, in data set [8] (cisplatin 20 μM alone), the cell viability entry is on record as “reduced cell viability”.
